The text below walks through data of US12054509B2, “Antimicrobial compounds, compositions, and uses thereof” (Lakewood Amedex, Inc., priority 2017, dated 2024).

Test [1] concerns Escherichia coli (strain CFT073, TPPS 1041). Kind of test: Urinary tract infection model in BALB/c mice, confirmatory efficacy (Example 11). The settings on record: for bacterial burden (bladder): 20 minutes post-treatment. The format is in vivo. The text has this:
Female BALB/c mice (20-22 g) ordered from Envigo are acclimated to housing conditions and handled in accordance with Animal Use Protocol (AUP) number TP-08. Animals are fed irradiated Teklad Global 29 18 Rodent Diet and water ad libitum. Mice are housed 6/cage in static cages with irradiated ⅛″ Teklad corn cobbedding 7902 inside bioBubble® clean rooms that provide H.E.P.A filtered air into the bubble environment at 100 complete air changes per hour. The environment is controlled to a temperature range of 74°±4° F. and a humidity range of 30-70%. All procedures carried out in this experiment are conducted in compliance with the laws, regulations, and guidelines of the National Institutes of Health and with the approval of the TransPharm Preclinical Solutions Animal Care and Use Committee.
A clinical isolate of Escherichia coli (strain CFT073, TPPS 1041) are procured from the University of Michigan.
The organism is grown overnight at 37° C. in ambient atmosphere on trypticase soy agar plates supplemented with 5% sheep blood cells. The culture is aseptically swabbed and transferred to tubes of trypticase soy broth. The optical density is determined at 600 nm. The culture is diluted to provide an inoculum of approximately 7.5 login CFU per mouse in a volume of 30 μL. Instillation of the bacterial challenge constituted time 0 hour for the study. Inoculum counts are estimated before inoculation by optical density and confirmed after inoculation by dilution and back counts.
One hour prior to bacterial challenge, water is removed from animal cages. On Day 0 at 0 hours, mice are anesthetized using isoflurane and urine is expressed from the bladder by applying gentle pressure to the abdomen with the thumb. Mice are infected with bacteria via transurethral injection in a volume of 30 μL. Water is returned to the cages immediately following the challenge. Challenge is performed in a BL2 surgical suite.
Nu-8 (Test article) is prepared immediately before each dosing. Nu-8 is dissolved in sterile saline and adjusted to pH 3.5 with phosphoric acid. At 23 hours post-challenge, water is removed from animal cages. One hour later, mice are anesthetized using isoflurane and residual urine is expressed from the bladder. Mice are treated with test article or controls via transurethral dosing in a volume of 30 μL according to TABLE 9 (showing Animal Challenge and Treatment Schedule). All treatments are administered in a BSL2 surgical suite.
Immediately following treatment administration, the urethral opening is occluded using Locktite gel superglue. One drop of glue is placed at the urethral opening and the opening is held together for 5-10 seconds using tissue forceps to ensure the urethral opening is occluded and the adhesive is dry. Animals remained under anesthetic following urethral occlusion. […]

The subject of the next test is P. aeruginosa. Kind of test: MIC broth microdilution (CLSI) at incremental pH, P. aeruginosa. The format is cell-based. The following applies: Pseudomonas aeruginosa. As to the method: MIC testing is conducted using the broth (Mueller Hinton Broth) microdilution procedures relevant to each organism group as established by the Clinical and Laboratory Standards Institute (CLSI; 3-7). MIC plates are prepared in accordance with CLSI (3-7). To prepare the test plates, automated liquid handlers are used to conduct serial dilutions and liquid transfers. Automated liquid handlers utilized in this study include the Multidrop 384 (Labsystems, Helsinki, Finland) and the Biomek 2000 (Beckman Coulter, Fullerton CA). The solution is diluted to desired pH using 1 M Citric Acid or 1 M NaOH buffer. A standardized inoculum of each test organism is prepared per CLSI methods (3, 5-7) to equal a 0.5 McFarland standard in the appropriate media followed by an additional 1:20 dilution (1:10 for anaerobes).
The plates are then inoculated with 10 μL of the diluted 0.5 McFarland suspension using the Biomek 2000 from low to high drug concentration, resulting in a final concentration of approximately 5×10^5 CFU/mL per well. An un-inoculated plate is incubated for the purpose of assessing solubility of the drug in the test media. The plates are stacked 3 to 4 high, covered with a sterile lid on the top plate, and incubated for 18 to 24 hours according to CLSI. The MIC is recorded as the lowest concentration of respective compound that inhibited visible growth of the organism.

In test [2] the test system is wild type P. aeruginosa (PAO1; K2732). Nature of the test: Bacterial cytological profiling at pH 4, 5.5, 7 (Example 8), P. aeruginosa. The class given is cell-based. As to the method: This bacterial cytological profiling (BCP) investigation uses methods and materials described previously by Nonejuie, P., Burkart, M., Poglianoa, K., Pogiano, J. (2013). Bacterial cytological profiling rapidly identifies the cellular pathways targeted by antibacterial molecules. Proc. Natl. Acad. Sci. U.S.A. 110(40):16169-16174. doi: 10.1073/pnas.1311066110.
For viable cell counts, cells are grown to OD600≈0.4 and diluted 1:1 into buffered or unbuffered media containing various compound concentrations. Samples are then collected and serially diluted (1:10) on a 96 well plate. Five microliters from each well are spotted on LB plates, incubated at 30° C., and viable cells are counted the next day.
Samples are collected at 10, 30, 120, and 240 min of exposure for viable cell count and imaging. For imaging, E. coli and S. aureus 200 μL of treated cells per time point are stained with 0.8 μg/mL FM4-64, 1.5 μg/mL DAPI, and 0.4 μM SYTOXGreen (Molecular Probes/Invitrogen). P. aeruginosa samples are stained 0.4 μM SYTOX Green, 28 μg/mL DAN, and 1 μg/mL FM 4-64. Cells are transferred to an agarose pad (20% LB, 1% agarose) for imaging.
For Nu-3 and Nu-8 stocks (at pH 4, 5.5 and 7), stock concentration is 500 mg/mL. For pH 4, the stocks are prepared by dissolving Nu-3 in 25 mM citrate buffer and Nu-8 in 350 mM citric acid. For pH 5.5, the stocks are prepared by dissolving Nu-3 in 25 mM citric-phosphate and Nu-8 in 25 mM critic. For pH 7, the stocks are prepared by dissolving Nu-3 and Nu-8 in 25 mM Sorensen phosphate buffer. 2×LB (lysogeny broth) solutions are prepared with 50 mM citrate buffer for pH 4, 50 mM citrate-phosphate buffer for pH 5.5, and 50 mM Sorensen phosphate buffer for pH 7.

`CCCCOP(=O)(O)OC[C@H]1O[C@@H](n2ccc(N)nc2=O)C[C@@H]1OP(=O)(O)OCCCC` [Nu-8, sodium ((2R,3S,5R)-5-(4-amino-2-oxopyrimidin-1(2H)-yl)-3-((butoxyoxidophosphor-yl)oxy)tetrahydrofuran-2-yl)methyl butyl phosphate]: the “bacterial burden (bladder)” value came to 6.5 log 10 in test [1] (205 mg/kg pH 3.5 transurethral), 5.0 log 10 in test [1] (410 mg/kg pH 3.5 transurethral) and 5.4 log 10 in test [1] (820 mg/kg pH 3.5 transurethral). The “average bladder CFU burden” value in test [1] (820 mg/kg pH 3.5 transurethral, 10 minutes post-treatment) was found to be 6.3 log 10. Further, the minimum inhibitory concentration (MIC) in the test on P. aeruginosa (pH 1) is 9.38 mg/mL; in the test with P. aeruginosa (pH 3), 18.8 mg/mL; in the test with P. aeruginosa (pH 4) it was 37.5 mg/mL; with P. aeruginosa (pH 5), 75 mg/mL; in the test with P. aeruginosa (pH 7), greater than 75 mg/mL. The cell growth result in test [2] (pH 5.5 and 7, 112.5 mg/mL) is on record as “reduction in cell growth”. In addition, the “increase/change in cell permeability” value in test [2] (pH 5.5 and 7, 112.5 mg/mL) was less than 20%. In test [2] (pH 7, 225 mg/mL, 10 min), this molecule registered a cell permeability of roughly 37%.

By MIC is commonly meant the lowest concentration that inhibits growth of the organism. A high value points to a less susceptible organism.
